{"source": "ChEMBL document CHEMBL5247609", "about": "“Novel nitric oxide-releasing derivatives of pyranocarbazole as antitumor agents: Design, synthesis, biological evaluation, and nitric oxide release studies” (Eur J Med Chem, 2022)", "key": {"NCI-H460": {"tested_on": "NCI-H460", "test": "Antiproliferative activity against human H460 cells assessed as reduction in cell viability after 96 hrs by MTT assay", "format": "functional, cell-based", "conditions": "NCI-H460, 96 h"}, "MDA-MB-231 [1]": {"tested_on": "MDA-MB-231", "test": "Antiproliferative activity against human MDA-MB-231 cells assessed as reduction in cell viability after 96 hrs by MTT assay", "format": "functional, cell-based", "conditions": "MDA-MB-231, 96 h"}, "MDA-MB-231 [2]": {"tested_on": "MDA-MB-231", "test": "Induction of morphological changes in human MDA-MB-231 cells at 0.5 to 2 uM measured after 24 hrs by bright field inverted microscopic analysis", "format": "functional, cell-based", "conditions": "dose 0.5-2 µM"}, "MX1 [3]": {"tested_on": "MX1", "test": "Induction of morphological changes in human MX1 cells assessed as decrease in cell size at 0.5 to 2 uM measured after 24 hrs by bright field inverted microscopic analysis", "format": "functional, cell-based", "conditions": "dose 0.5-2 µM"}, "MDA-MB-231 [4]": {"tested_on": "MDA-MB-231", "test": "Antiproliferative activity against human MDA-MB-231 cells assessed as decrease in number of colony formation at 0.25 uM measured after 14 days by crystal violet staining based analysis", "format": "functional, cell-based", "conditions": "time 14.0 day"}, "MX1 [5]": {"tested_on": "MX1", "test": "Induction of cell cycle arrest in human MX1 cells assessed as decrease in accumulation of cells at S phase at 0.5 to 2 uM measured after 24 hrs by propidium iodide staining based FACS calibur flow cytometeric analysis", "format": "functional", "conditions": "dose 0.5-2 µM"}, "MX1 [6]": {"tested_on": "MX1", "test": "Induction of cell cycle arrest in human MX-1 cells assessed as accumulation of cells at G0/G1 phase incubated for 24 hrs by propidium iodide staining based FACS calibur flow cytometeric analysis", "format": "functional", "conditions": "dose 0.5-2 µM"}, "MX1 [7]": {"tested_on": "MX1", "test": "Induction of apoptosis in human MX1 cells assessed as total apoptotic cells measured at 5 uM after 48 hrs by FITC-Annexin-V and propidium iodide based flow cytometric analysis (reference value: 16.36%)", "format": "functional"}, "MDA-MB-231 [8]": {"tested_on": "MDA-MB-231", "test": "Induction of apoptosis in human MDA-MB-231 cells assessed as total apoptotic cells measured at 5 uM after 48 hrs by FITC-Annexin-V and propidium iodide based flow cytometric analysis (reference value: 6.2%)", "format": "functional"}, "MX1 [9]": {"tested_on": "MX1", "test": "Induction of apoptosis in human MX1 cells assessed as early apoptotic cells measured at 0.5 uM after 48 hrs by FITC-Annexin-V and propidium iodide based flow cytometric analysis (reference value: 6.30%)", "format": "functional"}, "MDA-MB-231 [10]": {"tested_on": "MDA-MB-231", "test": "Induction of apoptosis in human MDA-MB-231 cells assessed as upregulation of Bax by Western blotting analysis", "format": "functional, cell-based", "conditions": "dose 0.5-2 µM"}, "MDA-MB-231 [11]": {"tested_on": "MDA-MB-231", "test": "Induction of apoptosis in human MDA-MB-231 cells assessed as downregulation of Bcl-2 by Western blotting analysis", "format": "functional, cell-based", "conditions": "dose 0.5-2 µM"}, "MX1 [12]": {"tested_on": "MX1", "test": "Induction of apoptosis in human MX1 cells assessed as upregulation of Bax by Western blotting analysis", "format": "functional, cell-based", "conditions": "dose 0.5-2 µM"}, "MX1 [13]": {"tested_on": "MX1", "test": "Induction of apoptosis in human MX1 cells assessed as increase in cleaved PARP-1 expression at 0.5 to 2 uM by Western blotting analysis", "format": "functional, cell-based", "conditions": "dose 0.5-2 µM"}, "MX1 [14]": {"tested_on": "MX1", "test": "Induction of apoptosis in human MX1 cells assessed as viable cells measured at 1 uM after 48 hrs by FITC-Annexin-V and propidium iodide based flow cytometric analysis (reference value: 88.4%)", "format": "functional", "conditions": "read-out: Activity"}, "MX1 [15]": {"tested_on": "MX1", "test": "Induction of apoptosis in human MX1 cells assessed as early apoptotic cells measured at 1 uM after 48 hrs by FITC-Annexin-V and propidium iodide based flow cytometric analysis (reference value: 6.30%)", "format": "functional"}, "MX1 [16]": {"tested_on": "MX1", "test": "Induction of apoptosis in human MX1 cells assessed as late apoptotic cells measured at 1 uM after 48 hrs by FITC-Annexin-V and propidium iodide based flow cytometric analysis (reference value: 5.24%)", "format": "functional"}, "MX1 [17]": {"tested_on": "MX1", "test": "Induction of apoptosis in human MX1 cells assessed as viable cells measured at 5 uM after 48 hrs by FITC-Annexin-V and propidium iodide based flow cytometric analysis (reference value: 88.4%)", "format": "functional", "conditions": "read-out: Activity"}, "MX1 [18]": {"tested_on": "MX1", "test": "Induction of apoptosis in human MX1 cells assessed as early apoptotic cells measured at 5 uM after 48 hrs by FITC-Annexin-V and propidium iodide based flow cytometric analysis (reference value: 6.30%)", "format": "functional"}, "MX1 [19]": {"tested_on": "MX1", "test": "Induction of apoptosis in human MX1 cells assessed as late apoptotic cells measured at 5 uM after 48 hrs by FITC-Annexin-V and propidium iodide based flow cytometric analysis (reference value: 5.24%)", "format": "functional"}, "MX1 [20]": {"tested_on": "MX1", "test": "Induction of apoptosis in human MX1 cells assessed as necrotic cells measured at 5 uM after 48 hrs by FITC-Annexin-V and propidium iodide based flow cytometric analysis (reference value: 0.055 %)", "format": "functional"}, "MDA-MB-231 [21]": {"tested_on": "MDA-MB-231", "test": "Induction of apoptosis in human MDA-MB-231 cells assessed as late apoptotic cells measured at 0.5 uM after 48 hrs by FITC-Annexin-V and propidium iodide based flow cytometric analysis (reference value: 2.68%)", "format": "functional"}, "MDA-MB-231 [22]": {"tested_on": "MDA-MB-231", "test": "Induction of apoptosis in human MDA-MB-231 cells assessed as viable cells measured at 1 uM after 48 hrs by FITC-Annexin-V and propidium iodide based flow cytometric analysis (reference value: 94.4% )", "format": "functional", "conditions": "read-out: Activity"}, "MDA-MB-231 [23]": {"tested_on": "MDA-MB-231", "test": "Induction of apoptosis in human MDA-MB-231 cells assessed as late apoptotic cells measured at 1 uM after 48 hrs by FITC-Annexin-V and propidium iodide based flow cytometric analysis (reference value: 2.68%)", "format": "functional"}, "MDA-MB-231 [24]": {"tested_on": "MDA-MB-231", "test": "Induction of apoptosis in human MDA-MB-231 cells assessed as late apoptotic cells measured at 2 uM after 48 hrs by FITC-Annexin-V and propidium iodide based flow cytometric analysis (reference value: 2.68%)", "format": "functional"}, "MDA-MB-231 [25]": {"tested_on": "MDA-MB-231", "test": "Induction of apoptosis in human MDA-MB-231 cells assessed as necrotic cells measured at 2 uM after 48 hrs by FITC-Annexin-V and propidium iodide based flow cytometric analysis (reference value: 0.253 %)", "format": "functional"}, "MDA-MB-231 [26]": {"tested_on": "MDA-MB-231", "test": "Induction of apoptosis in human MDA-MB-231 cells assessed as viable cells measured at 5 uM after 48 hrs by FITC-Annexin-V and propidium iodide based flow cytometric analysis (reference value: 94.4% )", "format": "functional", "conditions": "read-out: Activity"}, "MDA-MB-231 [27]": {"tested_on": "MDA-MB-231", "test": "Inhibition of PI3K/Akt signaling in human MDA-MB-231 cells assessed as decrease in phosphorylated S6 expression incubated for 24 hrs by Western blotting analysis", "format": "cell-based", "conditions": "dose 0.5-2 µM"}, "EMT6": {"tested_on": "EMT6", "test": "Antitumor activity against mouse EMT6 cells allografted in BALBC mouse a assessed as reduction in tumor growth inhibition at 150 mg/kg, IG administered every 3 days for 21 days relative to control", "format": "functional", "conditions": "EMT6, po, 504 h, time 21 day, read-out: TGI"}, "[28]": {"test": "Toxicity in BALBC mouse allografted with mouse EMT6 cells assessed as weight loss at 50 to 150 mg/kg, IG administered every 3 days for 21 days", "format": "organism-based", "conditions": "in vivo, po, 504 h, dose 50-150 mg/kg, time 21 day"}, "MDA-MB-231 [29]": {"tested_on": "MDA-MB-231", "test": "Antitumor activity against human MDA-MB-231 cells xenografted in BALBC mouse assessed as inhibition of tumor growth at 150 mg/kg, IG administered every 3 days for 21 days relative to control", "format": "functional", "conditions": "MDA-MB-231, po, 504 h, time 21 day, read-out: TGI"}, "MDA-MB-231 [30]": {"tested_on": "MDA-MB-231", "test": "Antitumor activity against human MDA-MB-231 cells xenografted in BALBC mouse assessed as inhibition of tumor growth at 24 mg/kg, ip administered every 3 days for 21 days relative to control", "format": "functional", "conditions": "MDA-MB-231, 504 h, time 21 day, read-out: TGI"}, "[31]": {"test": "Toxicity in BALBC mouse xenografted with human MDA-MB-231 cells assessed as weight loss at 50 to 150 mg/kg, IG administered every 3 days for 21 days", "format": "organism-based", "conditions": "in vivo, po, 504 h, dose 50-150 mg/kg, time 21 day"}}, "note": "The source made the active and inactive calls. The calls are words filed in the database; no cut-off is given here.", "data": [{"smiles": "CC1(C)C=Cc2c(c(/C=C/C(=O)NCCOc3no[n+]([O-])c3S(=O)(=O)c3ccccc3)cc3c2[nH]c2ccc(C(C)(C)C)cc23)O1", "values": [{"measurement": "IC50", "setting": "NCI-H460", "value": 780, "unit": "nM"}, {"measurement": "IC50", "setting": "MDA-MB-231 [1]", "value": 50, "unit": "nM"}, {"measurement": "Activity", "setting": "MDA-MB-231 [2]", "value": "Active"}, {"measurement": "Activity", "setting": "MX1 [3]", "value": "Active"}, {"measurement": "Activity", "setting": "MDA-MB-231 [4]", "value": "Active"}, {"measurement": "Activity", "setting": "MX1 [5]", "value": "Active"}, {"measurement": "Activity", "setting": "MX1 [6]", "value": "Dose-Dependent Effect"}, {"measurement": "Activity", "setting": "MX1 [7]", "value": 87.2, "unit": "%"}, {"measurement": "Activity", "setting": "MDA-MB-231 [8]", "value": 71.2, "unit": "%"}, {"measurement": "Activity", "setting": "MX1 [9]", "value": 39.8, "unit": "%"}, {"measurement": "Activity", "setting": "MDA-MB-231 [10]", "value": "Dose-Dependent Effect"}, {"measurement": "Activity", "setting": "MDA-MB-231 [11]", "value": "Dose-Dependent Effect"}, {"measurement": "Activity", "setting": "MX1 [12]", "value": "Dose-Dependent Effect"}, {"measurement": "Activity", "setting": "MX1 [13]", "value": "Active"}, {"measurement": "viability at 1 µM", "setting": "MX1 [14]", "value": 43.5, "unit": "%"}, {"measurement": "Activity", "setting": "MX1 [15]", "value": 48.2, "unit": "%"}, {"measurement": "Activity", "setting": "MX1 [16]", "value": 8.1, "unit": "%"}, {"measurement": "viability at 5 µM", "setting": "MX1 [17]", "value": 27.5, "unit": "%"}, {"measurement": "Activity", "setting": "MX1 [18]", "value": 57.8, "unit": "%"}, {"measurement": "Activity", "setting": "MX1 [19]", "value": 14.5, "unit": "%"}, {"measurement": "Activity", "setting": "MX1 [20]", "value": 0.276, "unit": "%"}, {"measurement": "Activity", "setting": "MDA-MB-231 [21]", "value": 3.85, "unit": "%"}, {"measurement": "viability at 1 µM", "setting": "MDA-MB-231 [22]", "value": 91.2, "unit": "%"}, {"measurement": "Activity", "setting": "MDA-MB-231 [23]", "value": 4.85, "unit": "%"}, {"measurement": "Activity", "setting": "MDA-MB-231 [24]", "value": 12.8, "unit": "%"}, {"measurement": "Activity", "setting": "MDA-MB-231 [25]", "value": 0.535, "unit": "%"}, {"measurement": "viability at 5 µM", "setting": "MDA-MB-231 [26]", "value": 47.1, "unit": "%"}, {"measurement": "inhibition", "setting": "MDA-MB-231 [27]", "value": "Active"}, {"measurement": "inhibition in vivo at 150 mg/kg", "setting": "EMT6", "value": 50.1, "unit": "%"}, {"measurement": "Activity", "setting": "[28]", "value": "Non-Toxic"}, {"measurement": "inhibition in vivo at 150 mg/kg", "setting": "MDA-MB-231 [29]", "value": 53.6, "unit": "%"}, {"measurement": "inhibition in vivo at 24 mg/kg", "setting": "MDA-MB-231 [30]", "value": 84.3, "unit": "%"}, {"measurement": "Activity", "setting": "[31]", "value": "Non-Toxic"}]}]}
